For this assay, the system named is HBV. Nature of the assay: HepAD38 antiviral assay: reduction of viral product accumulation (virion DNA by qPCR, HBsAg/HBeAg by ELISA). Type of assay: cell-based. The following applies: Hepatitis B virus, 120 h, HepAD38 cells, 50% reduction of viral product accumulation vs no drug controls, five days after compound addition. The protocol: Methods: HepAD38 cells are maintained as previously reported (Ladner et al, Antimicrob. Agents Chemother. 1997, […], 1715). Briefly, cells are passaged upon attaining confluency in DMEM/F12 media in the presence of 10% FBS, Penn/Strep, 250 μg/mL G418, and 1 μg/ml tetracycline. Novel compounds are screened by first washing cells three times with PBS to remove tetracycline, and plating in 96 well plates at 35,000 cells/well. Compounds dissolved in DMSO are then diluted 1:200 into wells containing cells. Five days after compound addition, material is harvested for analysis. For an extended 8 day analysis, cells are plated and treated as described above, but media and compound are refreshed on d2 and d5 post initial treatment.
On harvest day, virion DNA is obtained by lysing with Sidestep Lysis and Stabilization Buffer and then quantified via quantitative real time PCR. Commercially available ELISA kits are used to quantitate the viral proteins HBsAg (Alpco) or HbeAg (US Biological) by following the manufacturer's recommended protocol after diluting samples to match the linear range of their respective assays. Irrespective of readout, compound concentrations that reduce viral product accumulation in the cell lysates or supernatants by 50% relative to no drug controls (EC50) are reported; EC50 ranges are as follows: A<0.1 μM; B 0.1-1 μM; C>1 μM.
In general terms: Quantitative PCR measures a nucleic acid by following its amplification.

For the setting “class symbols”, `O=S(=O)(N[C@]1(CO)CC2=C(c3ccn(C(F)F)n3)[C@H](c3ccc(F)cc3Cl)N=C(c3nccs3)N2C1)C1CC1` [Example 70] returned an EC50 of 100 to 1000 nM.
Turning to `COC(=O)CNC(=O)[C@@]1(NC(=O)OC)CC2=C(c3ccn(C(F)F)n3)[C@H](c3ccc(F)cc3Cl)N=C(c3nccs3)N2C1` [Example 74], for the setting “given as numeric bound”, the 50% effective concentration (EC50) is greater than 400 nM.
On the same count and under the same terms, the result for `CS(=O)(=O)NC[C@@]1(O)CC2=C(c3ccn(C(F)F)n3)[C@H](c3ccc(F)cc3Cl)N=C(c3nccs3)N2C1` [Example 115] reads greater than 400 nM; that for `COC(=O)C(O)(CO)CC1=C(c2ccn(C(F)F)n2)[C@H](c2ccc(F)cc2Cl)N=C(c2nccs2)N1` (stereo partly shown) [Example 112], greater than 400 nM; that for `CCOC(=O)NC[C@@H]1CCC(=O)N1CC1=C(c2ccn(C(F)F)n2)[C@H](c2ccc(F)cc2Cl)N=C(c2nccs2)N1` [Example 135], greater than 400 nM.
Same read-out and setting: in the case of `O=C1N[C@@](CC2=C(c3ccn(C(F)F)n3)[C@H](c3ccc(F)cc3Cl)N=C(c3nccs3)N2)(C(=O)O)CO1` [Example 104] it was greater than 400 nM; in that of `COC(=O)NC[C@@]1(O)CC2=C(c3ccn(C(F)F)n3)[C@H](c3ccc(F)cc3Cl)N=C(c3nccs3)N2C1` [Example 117], greater than 400 nM.
Still for that read-out and setting: in the case of `CCOC(=O)NC[C@H]1CN(CC2=C(c3ccn(C(F)F)n3)[C@H](c3ccc(F)cc3Cl)N=C(c3nccs3)N2)C(=O)O1` [Example 126] it was greater than 400 nM; in that of `O=S(=O)(CC1=C(c2cnn(C(F)F)c2)[C@H](c2ccc(F)cc2Cl)N=C(c2nccs2)N1)N1CCC(O)CC1` [Example 146], greater than 400 nM; in that of `O=C1N[C@](CO)(CC2=C(c3ccn(C(F)F)n3)[C@H](c3ccc(F)cc3Cl)N=C(c3nccs3)N2)CO1` [Example 90], greater than 400 nM.
In turn, `CS(=O)(=O)N[C@]1(CO)CC2=C(c3ccn(C(F)F)n3)[C@H](c3ccc(F)cc3Cl)N=C(c3nccs3)N2C1` [Example 69] gave an EC50 (given as numeric bound) greater than 400 nM.
On the same count and under the same terms, the result for `CS(=O)(=O)NC(=O)N[C@H]1CC2=C(c3cnn(C(F)F)c3)[C@H](c3ccc(F)cc3Cl)N=C(c3nccs3)N2C1` [Example 15] reads greater than 100 nM; that for `COC(=O)N[C@]1(COC(=O)NCCC(=O)O)CC2=C(c3ccn(C(F)F)n3)[C@H](c3ccc(F)cc3Cl)N=C(c3nccs3)N2C1` [Example 79], greater than 400 nM.
In turn, `CS(=O)(=O)NCC1(F)CC2=C(c3cnn(C(F)F)c3)[C@H](c3ccc(F)cc3Cl)N=C(c3nccs3)N2C1` (stereo partly shown) [Example 43] registered a 50% effective concentration (EC50) (class symbols) of 100 to 1000 nM.
In turn, `C[C@]1(CN=[N+]=[N-])CC2=C(c3cnn(C(F)F)c3)[C@H](c3ccc(F)cc3Cl)N=C(c3nccs3)N2C1` [Example 36] gave an EC50 (given as numeric bound) greater than 400 nM.
`CS(=O)(=O)OC[C@@]1(F)CC2=C(c3cnn(C(F)F)c3)[C@H](c3ccc(F)cc3Cl)N=C(c3nccs3)N2C1` [Example 35] displayed an EC50 (class symbols) of 100 to 1000 nM.
On to `CN(C)C(=O)NCC1(C)CC2=C(c3cnn(C(F)F)c3)[C@H](c3ccc(F)cc3Cl)N=C(c3nccs3)N2C1` (stereo partly shown) [Example 42], for which the 50% effective concentration (EC50) (given as numeric bound) is greater than 400 nM.
The same measure, in the same setting: the result for `CC(=O)OC[C@]1(N=[N+]=[N-])CC2=C(c3cnn(C(F)F)c3)[C@H](c3ccc(F)cc3Cl)N=C(c3nccs3)N2C1` [Example 58] reads greater than 400 nM.
Still for that read-out and setting: in the case of `CC(=O)NC[C@@]1(O)CC2=C(c3ccn(C(F)F)n3)[C@H](c3ccc(F)cc3Cl)N=C(c3nccs3)N2C1` [Example 116] it was greater than 400 nM; in that of `[N-]=[N+]=NC[C@]1(N=[N+]=[N-])CC2=C(c3cnn(C(F)F)c3)[C@H](c3ccc(F)cc3Cl)N=C(c3nccs3)N2C1` [Example 52], greater than 400 nM.
The same measure, in the same setting: in the case of `O=S(=O)(N[C@H]1CC2=C(c3cc[nH]n3)[C@H](c3ccc(F)cc3Cl)N=C(c3nccs3)N2C1)C1CC1` [Example 4] it was greater than 100 nM.
Take `COC(=O)OC[C@@]1(N=[N+]=[N-])CC2=C(c3cnn(C(F)F)c3)[C@H](c3ccc(F)cc3Cl)N=C(c3nccs3)N2C1` [Example 55]: for the setting “class symbols”, the half-maximal effective concentration (EC50) was less than 100 nM.
`COC(=O)[C@@]1(NS(C)(=O)=O)CC2=C(c3ccn(C(F)F)n3)[C@H](c3ccc(F)cc3Cl)N=C(c3nccs3)N2C1` [Example 67] gave a 50% effective concentration (EC50) (given as numeric bound) greater than 400 nM.
Regarding `COC(=O)NC[C@@H]1CN(CC2=C(c3ccn(C(F)F)n3)[C@H](c3ccc(F)cc3Cl)N=C(c3nccs3)N2)C(=O)O1` [Example 128], the EC50 (given as numeric bound) is greater than 400 nM.
Same read-out and setting: the result for `COC(=O)N[C@@]1(C(=O)OC)CC2=C(c3ccn(C(F)F)n3)[C@H](c3ccc(F)cc3Cl)N=C(c3nccs3)N2C1` [Example 82] reads greater than 400 nM.
Regarding `CCS(=O)(=O)N[C@H]1CC2=C(c3cnn(C(F)F)c3)[C@H](c3ccc(F)cc3Cl)N=C(c3nccs3)N2C1` [Example 21], where the note is “class symbols”, the EC50 is less than 100 nM.
With `CS(=O)(=O)OC[C@]1(F)CC2=C(c3cnn(C(F)F)c3)[C@H](c3ccc(F)cc3Cl)N=C(c3nccs3)N2C1` [Example 34], the 50% effective concentration (EC50) (given as numeric bound) was greater than 400 nM.
With `CC(C)(C)OC(=O)N[C@H]1CC2=C(c3cnn(C(F)F)c3)[C@H](c3ccc(F)cc3Cl)N=C(c3nccs3)N2C1` [Example 2], the EC50 (class symbols) is 100 to 1000 nM.
Still for that read-out and setting: in the case of `OC[C@@]1(O)CC2=C(c3ccn(C(F)F)n3)[C@H](c3ccc(F)cc3Cl)N=C(c3nccs3)N2C1` [Example 122] it was 100 to 1000 nM.
Under “given as numeric bound”, `C[C@@]1(CN=[N+]=[N-])CC2=C(c3cnn(C(F)F)c3)[C@H](c3ccc(F)cc3Cl)N=C(c3nccs3)N2C1` [Example 37] gave an EC50 greater than 400 nM.
On the same count and under the same terms, in the case of `CC(=O)[C@]1(CC2=C(c3ccn(C(F)F)n3)[C@H](c3ccc(F)cc3Cl)N=C(c3nccs3)N2)COC(=O)N1` [Example 108] it was greater than 400 nM; in that of `CC(=O)NS(=O)(=O)N[C@H]1CC2=C(c3cnn(C(F)F)c3)[C@H](c3ccc(F)cc3Cl)N=C(c3nccs3)N2C1` [Example 20], greater than 400 nM.
`CN(C)C(=O)NCC1CC2=C(c3cnn(C(F)F)c3)[C@H](c3ccc(F)cc3Cl)N=C(c3nccs3)N2C1` (stereo partly shown) [Example 32] came in with a half-maximal effective concentration (EC50) (given as numeric bound) greater than 100 nM.
Compound `COC(=O)[C@@](N)(CO)CC1=C(c2ccn(C(F)F)n2)[C@H](c2ccc(F)cc2Cl)N=C(c2nccs2)N1` [Example 92] displayed a 50% effective concentration (EC50) (given as numeric bound) greater than 400 nM.
Under “class symbols”, `COCC(F)(COC)CC1=C(c2cnn(C(F)F)c2)[C@H](c2ccc(F)cc2Cl)N=C(c2nccs2)N1` [Example 138] had an EC50 of 100 to 1000 nM.
For the compound `[N-]=[N+]=NC[C@@]1(N=[N+]=[N-])CC2=C(c3cnn(C(F)F)c3)[C@H](c3ccc(F)cc3Cl)N=C(c3nccs3)N2C1` [Example 53], the 50% effective concentration (EC50) (given as numeric bound) was greater than 400 nM.
On the same count and under the same terms, the result for `CC(C)(C)OC(=O)NC[C@H]1CN(CC2=C(c3ccn(C(F)F)n3)[C@H](c3ccc(F)cc3Cl)N=C(c3nccs3)N2)C(=O)O1` [Example 124] reads greater than 400 nM.
In the case of `[N-]=[N+]=NC[C@@]1(O)CC2=C(c3ccn(C(F)F)n3)[C@H](c3ccc(F)cc3Cl)N=C(c3nccs3)N2C1` [Example 113], under “class symbols”, the EC50 lay within 100 to 1000 nM.
With `CC(O)[C@]1(CC2=C(c3ccn(C(F)F)n3)[C@H](c3ccc(F)cc3Cl)N=C(c3nccs3)N2)COC(=O)N1` (stereo partly shown) [Example 110], where the note is “given as numeric bound”, the EC50 was greater than 400 nM.
The same measure, in the same setting: in the case of `OCC1CC2=C(c3cnn(C(F)F)c3)[C@H](c3ccc(F)cc3Cl)N=C(c3nccs3)N2C1` (stereo partly shown) [Example 27] it was greater than 100 nM.
The same measure, in the same setting: the result for `COC(=O)NCC1CC2=C(c3cnn(C(F)F)c3)[C@H](c3ccc(F)cc3Cl)N=C(c3nccs3)N2C1` (stereo partly shown) [Example 31] reads greater than 100 nM.
Still for that read-out and setting: in the case of `O=C(O)CC[C@]1(CC2=C(c3ccn(C(F)F)n3)[C@H](c3ccc(F)cc3Cl)N=C(c3nccs3)N2)COC(=O)N1` [Example 107] it was greater than 400 nM; in that of `COC(=O)N[C@]1(C(C)O)CC2=C(c3ccn(C(F)F)n3)[C@H](c3ccc(F)cc3Cl)N=C(c3nccs3)N2C1` (stereo partly shown) [Example 119], greater than 400 nM.
Compound `O=C[C@]1(CC2=C(c3ccn(C(F)F)n3)[C@H](c3ccc(F)cc3Cl)N=C(c3nccs3)N2)COC(=O)N1` [Example 95] showed an EC50 (class symbols) of less than 100 nM.
As for `CCOC(=O)NC[C@H]1CCC(=O)N1CC1=C(c2ccn(C(F)F)n2)[C@H](c2ccc(F)cc2Cl)N=C(c2nccs2)N1` [Example 134], the EC50 (given as numeric bound) was greater than 400 nM.
In the case of `O=C1N[C@@](/C=N/Oc2ccccc2)(CC2=C(c3ccn(C(F)F)n3)[C@H](c3ccc(F)cc3Cl)N=C(c3nccs3)N2)CO1` [Example 102], the EC50 (class symbols) was 100 to 1000 nM.
The compound `COC(=O)[C@]1(NC(=O)OC(C)(C)C)CC2=C(c3ccn(C(F)F)n3)[C@H](c3ccc(F)cc3Cl)N=C(c3nccs3)N2C1` [Example 65] returned an EC50 (given as numeric bound) greater than 400 nM.
Same read-out and setting: the result for `COC(=O)CCNC(=O)OC[C@@]1(NC(=O)OC)CC2=C(c3ccn(C(F)F)n3)[C@H](c3ccc(F)cc3Cl)N=C(c3nccs3)N2C1` [Example 78] reads greater than 400 nM; that for `CCC[C@H]1OC[C@@](F)(CC2=C(c3cnn(C(F)F)c3)[C@H](c3ccc(F)cc3Cl)N=C(c3nccs3)N2)CO1` [Example 142], greater than 400 nM; that for `COC(=O)N[C@]1(C(=O)NCCC(=O)O)CC2=C(c3ccn(C(F)F)n3)[C@H](c3ccc(F)cc3Cl)N=C(c3nccs3)N2C1` [Example 81], greater than 400 nM.
`CCC[C@H]1OC[C@](F)(CC2=C(c3cnn(C(F)F)c3)[C@H](c3ccc(F)cc3Cl)N=C(c3nccs3)N2)CO1` [Example 141]: under “given as numeric bound”, the EC50 was greater than 400 nM.
Same read-out and setting: the result for `COC(=O)N[C@]1(COC(=O)NCC(=O)O)CC2=C(c3ccn(C(F)F)n3)[C@H](c3ccc(F)cc3Cl)N=C(c3nccs3)N2C1` [Example 77] reads greater than 400 nM.

Usually EC50 stands for the concentration giving half of the maximal effect. Read a low EC50 as greater potency.

The record behind these values is patent US10723733B2, “Hepatitis B antiviral agents” (Enanta Pharmaceuticals, Inc., priority 2017, dated 2020).
